The source of these data is patent publication US9789096B2, “Methods and compositions for selective and targeted cancer therapy” (Board of Regents of the University of Texas System, priority 2013, dated 2017).

Molecules are shown by their SMILES.

One may read the AC50 as the midpoint of the concentration-response curve, whichever way the signal moves. A low value points to activity at low concentration.

The test system of one test is H2122. Description: Cell viability dose-response, H2122. Format: cell-based, human. To be noted: Homo sapiens, NCI-H2122, 12-point dose-response starting at 50 micromolar, 3-fold increments, in duplicate; read-out: toxicity data, H2122. Summed up: (§1)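 Viability read as total ATP (Cell Titer Glo) following 4 days' compound exposure, with IC50 derived from dose-response curves. Duplicate 12-point series, top concentration 50 micromolar with 3-fold steps, on cells seeded at 15% confluence in RPMI-1640, 5% FBS, 2 mM L-glutamine.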
Consider `C#CCOc1ccc(C(=O)c2ccc(NC(=O)C(=O)NCCc3ccccc3)cc2)cc1` [SW211560-1], for which the IC50 was at least 49.5 µM.

The same test, now with this note: Homo sapiens, NCI-H2122, Table 8; 12-point dose-response starting at 50 micromolar.
`O=c1c(Oc2ccccc2F)coc2cc(OCc3cnn(-c4ccccc4)c3)ccc12` [SW043139]: the AC50 was determined as 0.166 µM.
For `O=C1/C(=C/c2ncc[nH]2)COc2cc(OCc3cnn(-c4ccccc4)c3)ccc21` [SW209384-1], the concentration at half-maximal activity (AC50) amounted to 14 µM.
Take `O=C1/C(=C/c2c[nH]cn2)COc2cc(OCc3cnn(-c4ccccc4)c3)ccc21` [SW209385-1]: the AC50 was at least 49.5 µM.
Turning to `C#CCOc1cccc(-c2coc3cc(OCc4cnn(-c5ccccc5)c4)ccc3c2=O)c1` [SW 209087-1], half-maximal activity (AC50) was put at 0.106 µM.
With `OC(CCc1ccc(Br)cc1)Cn1ccnc1` (stereo not shown) [SW 209089-1], the AC50 is at least 49.5 µM.

The test is the same for the next values; noted with them: Homo sapiens, NCI-H2122, Tables 3 and 4; read-out: IC50 (uM) vs indicated non-small cell lung cancer cell line H2122.
As to `COc1ccc2nc(NS(=O)(=O)c3ccc(Br)cc3)sc2c1` [SW166942], the IC50 came out at 59.6 µM.
On the same count and under the same terms, the value for `O=C(Nc1ccc([N+](=O)[O-])cc1F)c1sc2ccccc2c1Cl` [SW202552] was 122 µM; that for `COc1ccc2nc(NS(=O)(=O)c3ccc(C(F)(F)F)cc3)sc2c1` [SW202746] was 46.1 µM; that for `NC(=O)c1ccc(C(=O)Nc2nc3ccccc3s2)cc1` [SW209411-1] was at least 49.5 µM.
For the compound `O=C(O)c1ccc(C(=O)Nc2nc3ccccc3s2)cc1` [SW209412-1], the IC50 is at least 49.5 µM.
For the compound `Nc1ccc2nc(NC(=O)c3ccc(C(=O)O)cc3)sc2c1` [SW209413-1], the IC50 is at least 49.5 µM.
Still for that read-out and setting: to `COC(=O)c1ccc(C(=O)Nc2nc3ccccc3s2)cc1` [SW209414-1] belongs at least 49.5 µM; to `O=C(Nc1nc2cnccc2s1)c1ccccc1` [SW209562-1], at least 49.5 µM.
As for `Nc1ccc(C(=O)Nc2nc3ccccc3s2)cc1` [SW209563-1], the IC50 worked out at 0.027 µM.
Same read-out and setting: the value for `O=C(c1ccccc1)c1ccc(/C(=N/c2nc3ccc(OCc4ccc(Cl)cc4)cc3s2)OCc2ccc(Cl)cc2)cc1` [SW211559-1] was 0.086 µM; that for `COC(=O)c1ccc2nc(NC(=O)c3ccc(C(=O)c4ccccc4)cc3)sc2c1` [SW211561-1] was 7.75 µM; that for `Nc1ccc(C(=O)Nc2nc3ccccc3[nH]2)cc1` [SW211566] was at least 49.5 µM.

A further test concerns H2009. In words: Cell viability dose-response, H2009. Format: cell-based, human. The settings on record: Homo sapiens, NCI-H2009; Tables 3 and 4; read-out: IC50 (uM) vs indicated non-small cell lung cancer cell line H2009. An outline of the steps:
(§2)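 Steps: seed cells to 15% confluence in RPMI-1640 supplemented with 5% fetal bovine serum and 2 mM glutamine; add compound across a concentration range; incubate 4 days; measure total ATP with CellTiter-Glo. IC50 is derived from the curve.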
Turning to `COc1ccc2nc(NS(=O)(=O)c3ccc(Br)cc3)sc2c1` [SW166942], the IC50 came to 78.6 µM.
`COc1ccc2nc(NS(=O)(=O)c3ccc(C(F)(F)F)cc3)sc2c1` [SW202746]: the IC50 stood at 42.7 µM.
Regarding `COc1ccc2nc(NS(=O)(=O)CC34CCC(CC3=O)C4(C)C)sc2c1` (stereo not shown) [SW202752], the IC50 turned out to be 4950 µM.

The next test deals with HCC44. In words: Cell viability dose-response, HCC44. It is filed as cell-based, human. The settings on record: Homo sapiens, HCC44, Table 8; 12-point dose-response starting at 50 micromolar. An outline of the steps:
as §2
`O=c1c(Oc2ccccc2F)coc2cc(OCc3cnn(-c4ccccc4)c3)ccc12` [SW043139]: the AC50 turned out to be 50 µM.

For a further test, the system named is H2073. In words: Cell viability dose-response, H2073. It is filed as cell-based, human. The settings on record: Homo sapiens, NCI-H2073, 12-point dose-response starting at 50 micromolar, 3-fold increments, in duplicate; read-out: toxicity data, H2073. Here is the method: (§3) FIG. 6A. […] Cell viability is plotted vs. compound concentration. Compound was added to cells plated at 15% confluence in 96-well plates in RPMI-1640 media supplemented with 5% Fetal Bovine Serum and 2 mM L-Glutamine. After 4 days of incubation, ATP levels were measured using Cell Titer Glo (Promega). Data are presented as the average of 2 replicates ±SEM.
(§4) Selectivity may be measured by the half maximal inhibitory concentration (IC50), which, as used herein, is a measure of the effectiveness of a compound in killing cells. This quantitative measure indicates how much of a particular compound is needed to kill a particular cell population by half (e.g., as indicated by the amount of ATP). […] The IC50 can be determined by constructing a dose-response curve. The lower the IC50, the higher the potency, and the greater the difference between IC50 values for different cell lines (e.g., sensitive lines vs. insensitive lines, and sensitive lines vs. normal lines) the greater the selectivity. […]
With this information, we synthesized and tested a series of small molecules derived in conception from the oxalamide and chromone scaffold including N-acyl ureas, as shown in Tables 6-8. Each compound was tested in a 12-point dose-response study starting at 50 micromolar and decreasing in 3-fold increments to sub-nanomolar concentrations, in duplicate. Additionally, one or more additional cell line was tested in the same way.
As to `C#CCOc1ccc(C(=O)c2ccc(NC(=O)C(=O)NCCc3ccccc3)cc2)cc1` [SW211560-1], the IC50 was 22.7 µM.

Staying with this test, now noted: Homo sapiens, NCI-H2073, Tables 3 and 4; read-out: IC50 (uM) vs indicated non-small cell lung cancer cell line H2073.
Regarding `COc1ccc2nc(NS(=O)(=O)c3ccc(Br)cc3)sc2c1` [SW166942], the IC50 was found to be 47.6 µM.
In the case of `COc1ccc2nc(NS(=O)(=O)c3ccc(C(F)(F)F)cc3)sc2c1` [SW202746], the IC50 is 38 µM.
For `COc1ccc2nc(NS(=O)(=O)CC34CCC(CC3=O)C4(C)C)sc2c1` (stereo not shown) [SW202752], the IC50 was found to be 110 µM.
For `NC(=O)c1ccc(C(=O)Nc2nc3ccccc3s2)cc1` [SW209411-1], the IC50 was 27.8 µM.
Still for that read-out and setting: to `O=C(O)c1ccc(C(=O)Nc2nc3ccccc3s2)cc1` [SW209412-1] belongs 49.5 µM; to `Nc1ccc2nc(NC(=O)c3ccc(C(=O)O)cc3)sc2c1` [SW209413-1], 49.5 µM; to `COC(=O)c1ccc(C(=O)Nc2nc3ccccc3s2)cc1` [SW209414-1], 49.5 µM.
Turning to `O=C(Nc1nc2cnccc2s1)c1ccccc1` [SW209562-1], the IC50 came to 49.5 µM.
Turning to `Nc1ccc(C(=O)Nc2nc3ccccc3s2)cc1` [SW209563-1], the IC50 came to 0.184 µM.
For the compound `O=C(c1ccccc1)c1ccc(/C(=N/c2nc3ccc(OCc4ccc(Cl)cc4)cc3s2)OCc2ccc(Cl)cc2)cc1` [SW211559-1], the IC50 was found to be 0.165 µM.
On to `COC(=O)c1ccc2nc(NC(=O)c3ccc(C(=O)c4ccccc4)cc3)sc2c1` [SW211561-1], for which the IC50 amounted to 29.1 µM.
Take `Nc1ccc(C(=O)Nc2nc3ccccc3[nH]2)cc1` [SW211566]: the IC50 was 49.5 µM.

The same test, now with this note: Homo sapiens, NCI-H2073; Table 8; 12-point dose-response starting at 50 micromolar.
As for `O=c1c(Oc2ccccc2F)coc2cc(OCc3cnn(-c4ccccc4)c3)ccc12` [SW043139], the half-maximal activity concentration (AC50) was 50 µM.
`O=C1/C(=C/c2ncc[nH]2)COc2cc(OCc3cnn(-c4ccccc4)c3)ccc21` [SW209384-1] returned a half-maximal activity concentration (AC50) of 9.68 µM.
On to `O=C1/C(=C/c2c[nH]cn2)COc2cc(OCc3cnn(-c4ccccc4)c3)ccc21` [SW209385-1], for which the activity was half-maximal at 12.2 µM (AC50).
The same measure, in the same setting: the value for `C#CCOc1cccc(-c2coc3cc(OCc4cnn(-c5ccccc5)c4)ccc3c2=O)c1` [SW 209087-1] was 49.5 µM; that for `OC(CCc1ccc(Br)cc1)Cn1ccnc1` (stereo not shown) [SW 209089-1] was 49.5 µM.

The next test deals with HBEC30KT. Description: Cell viability (ATP, Cell Titer Glo, 4 days), HBEC30KT. Format: cell-based, human. To be noted: Homo sapiens, Tables 3 and 4; read-out: HBEC30KT IC50. Here is the method: as §3, §4
As for `O=C(Nc1ccc([N+](=O)[O-])cc1F)c1sc2ccccc2c1Cl` [SW202552], the IC50 was 4950 µM.
Take `COc1ccc2nc(NC(=O)CCc3ccccc3)sc2c1` [SW202751]: the IC50 was 376 µM.

The test system of another test is H1819. In words: Cell viability dose-response, H1819. Format: cell-based, human. The settings on record: Homo sapiens, NCI-H1819, 12-point dose-response starting at 50 micromolar, 3-fold increments, in duplicate; read-out: toxicity data, H1819. An outline of the steps: as §1
`C#CCOc1ccc(C(=O)c2ccc(NC(=O)C(=O)NCCc3ccccc3)cc2)cc1` [SW211560-1]: the IC50 was at least 49.5 µM.

The same test, now with this note: Homo sapiens, NCI-H1819, Tables 3 and 4; read-out: IC50 (uM) vs indicated non-small cell lung cancer cell line H1819.
Consider `COc1ccc2nc(NS(=O)(=O)c3ccc(Br)cc3)sc2c1` [SW166942], for which the IC50 amounted to 46.7 µM.
With `COc1ccc2nc(NS(=O)(=O)c3ccc(C(F)(F)F)cc3)sc2c1` [SW202746], the IC50 came out at 36 µM.
Same read-out and setting: the value for `COc1ccc2nc(NC(=O)CCc3ccccc3)sc2c1` [SW202751] was 995 µM.
Same read-out and setting: the value for `COc1ccc2nc(NS(=O)(=O)CC34CCC(CC3=O)C4(C)C)sc2c1` (stereo not shown) [SW202752] was 166 µM.
The same measure, in the same setting: to `NC(=O)c1ccc(C(=O)Nc2nc3ccccc3s2)cc1` [SW209411-1] belongs 3.1 µM.
Take `O=C(O)c1ccc(C(=O)Nc2nc3ccccc3s2)cc1` [SW209412-1]: the IC50 is at least 49.5 µM.
On the same count and under the same terms, the value for `Nc1ccc2nc(NC(=O)c3ccc(C(=O)O)cc3)sc2c1` [SW209413-1] was at least 49.5 µM.
On the same count and under the same terms, the value for `COC(=O)c1ccc(C(=O)Nc2nc3ccccc3s2)cc1` [SW209414-1] was at least 49.5 µM; that for `O=C(Nc1nc2cnccc2s1)c1ccccc1` [SW209562-1] was at least 49.5 µM.
`Nc1ccc(C(=O)Nc2nc3ccccc3s2)cc1` [SW209563-1]: the IC50 came out at 19.7 µM.
Take `O=C(c1ccccc1)c1ccc(/C(=N/c2nc3ccc(OCc4ccc(Cl)cc4)cc3s2)OCc2ccc(Cl)cc2)cc1` [SW211559-1]: the IC50 stood at 0.9 µM.
In the case of `COC(=O)c1ccc2nc(NC(=O)c3ccc(C(=O)c4ccccc4)cc3)sc2c1` [SW211561-1], the IC50 is 16.5 µM.
Turning to `Nc1ccc(C(=O)Nc2nc3ccccc3[nH]2)cc1` [SW211566], the IC50 is at least 49.5 µM.

Staying with this test, now noted: Homo sapiens, NCI-H1819; Table 8; 12-point dose-response starting at 50 micromolar.
`O=c1c(Oc2ccccc2F)coc2cc(OCc3cnn(-c4ccccc4)c3)ccc12` [SW043139] came in with an AC50 of 50 µM.
The same measure, in the same setting: to `O=C1/C(=C/c2ncc[nH]2)COc2cc(OCc3cnn(-c4ccccc4)c3)ccc21` [SW209384-1] belongs 15.5 µM; to `O=C1/C(=C/c2c[nH]cn2)COc2cc(OCc3cnn(-c4ccccc4)c3)ccc21` [SW209385-1], 18 µM.
Turning to `C#CCOc1cccc(-c2coc3cc(OCc4cnn(-c5ccccc5)c4)ccc3c2=O)c1` [SW 209087-1], half-maximal activity (AC50) was put at 49.5 µM. This AC50 lies about 2.8-fold higher than the previous one.
For `OC(CCc1ccc(Br)cc1)Cn1ccnc1` (stereo not shown) [SW 209089-1], the AC50 was 49.5 µM. This lies in the double-digit micromolar range.
